Source: BindingDB's records for doi:10.1021/jm100809g (F. Hoffmann-La Roche, 2011)

target: Carnitine O-palmitoyltransferase 1, liver isoform (Rattus norvegicus) (UniProt P32198); assay: Maximal inhibition of rat CPT1A
Sequence (P32198 whole entry, looked up, canonical isoform): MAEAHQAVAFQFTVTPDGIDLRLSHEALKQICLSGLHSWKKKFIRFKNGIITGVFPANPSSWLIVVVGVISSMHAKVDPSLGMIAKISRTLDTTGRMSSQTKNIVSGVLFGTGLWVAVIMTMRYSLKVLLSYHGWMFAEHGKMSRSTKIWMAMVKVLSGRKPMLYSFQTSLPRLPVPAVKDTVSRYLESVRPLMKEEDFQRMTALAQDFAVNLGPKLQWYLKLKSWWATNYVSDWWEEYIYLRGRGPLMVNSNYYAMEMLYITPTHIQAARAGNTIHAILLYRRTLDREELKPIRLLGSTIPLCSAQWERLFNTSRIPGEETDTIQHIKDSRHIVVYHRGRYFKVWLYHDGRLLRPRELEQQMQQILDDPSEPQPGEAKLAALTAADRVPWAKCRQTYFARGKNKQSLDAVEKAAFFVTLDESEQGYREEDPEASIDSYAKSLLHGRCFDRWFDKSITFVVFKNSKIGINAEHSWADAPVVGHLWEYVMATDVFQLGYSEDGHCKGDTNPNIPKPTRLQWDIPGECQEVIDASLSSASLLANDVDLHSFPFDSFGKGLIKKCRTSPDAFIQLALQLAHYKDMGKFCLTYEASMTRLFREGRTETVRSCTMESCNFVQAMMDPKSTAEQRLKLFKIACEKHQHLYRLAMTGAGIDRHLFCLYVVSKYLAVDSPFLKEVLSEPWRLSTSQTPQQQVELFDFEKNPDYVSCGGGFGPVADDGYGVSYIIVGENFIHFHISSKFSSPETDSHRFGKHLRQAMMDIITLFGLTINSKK

Going from `C[N+](C)(C)C[C@H](N)CC(=O)[O-]` to `CCCCCCCCCCCCCCNC(=O)N[C@H](CC(=O)[O-])C[N+](C)(C)C` [[3-Carboxy-2-(3-tetradecyl-ureido)-propyl]-trimethyl-ammonium], the IC50 falls from 27.3 µM to 1.45 µM (19-fold). The second is the more potent here.

`O=C(COc1ccccc1)N1CCCC[C@@H]1c1nc(-c2ccccn2)cs1` and `O=C(NCc1cccs1)c1nn(Cc2cccc(C(F)(F)F)c2)c2ccccc12` are within 1.5-fold of each other in IC50: 0.13 µM for the first, 0.15 µM for the second.

Going from `COc1ccc(C)cc1S(=O)(=O)N1CCCc2ccc(C(=O)Nc3ccc(CC(=O)O)cc3)cc21` to `COc1ccc(Cl)cc1S(=O)(=O)N1CCc2ccc(C(=O)Nc3ccc(C(=O)O)cc3)cc21`, the IC50 falls from 0.18 µM to 0.055 µM (3.3-fold).

Molecule `COc1ccc(Cl)cc1S(=O)(=O)N1CC(C(=O)O)Oc2ccc(C(=O)Nc3cccc(F)c3)cc21` (configuration not stated) has an IC50 of 0.03 µM.
